Data reported in patent US9326973B2, “Hepatitis C virus inhibitors” (priority 2012, dated 2016).

System: HCV replicon, genotype-1a variant with glutamine 30 changed to glutamate in the NS5A protein
Test: microbe, parasite or virus in culture
Format: cell-based, HCV genotype 1a
Conditions: HCV replicon genotype 1a Q30E (Q→E) variant; test compound titrated with an NS5A-targeting compound (BMS-790052 fixed at 200 nM); ranking of synergist activity
Text: The NS5A synergistic inhibitory effect of test compounds can be determined using various amounts of an NS5A-targeting compound with titration of a second compound of interest. […] In one embodiment, the HCV genotype strain can be genotype 1a containing a change at amino acid 30 of the NS5A protein consisting of glutamine to glutamate. The test compound can be chosen from compounds listed above or from others present in the literature.

## CC(C)[C@H](O)C(=O)N[C@H](c1nc(-c2ccc(-c3ccc(-c4c[nH]c([C@@H](NC(=O)[C@@H](O)C(C)C)C(C)(C)C)n4)cc3)cc2)c[nH]1)C(C)(C)C [Compound L-78]
  Fold-Synergistic 1a (Q30E): >100 fold

## CC(C)(C)[C@H](NC(=O)[C@H]1CCC(=O)O1)c1nc(-c2ccc(-c3ccc(-c4c[nH]c([C@@H](NC(=O)[C@H]5CCC(=O)O5)C(C)(C)C)n4)cc3)cc2)c[nH]1 [Compound L-79]
  Fold-Synergistic 1a (Q30E): <10 fold

## CO[C@H](C)C(=O)N[C@H](c1nc(-c2ccc(-c3ccc(-c4c[nH]c([C@@H](NC(=O)[C@@H](C)OC)C(C)(C)C)n4)cc3)cc2)c[nH]1)C(C)(C)C [Compound L-80]
  Fold-Synergistic 1a (Q30E): >100 fold

## CC(C)(C)[C@H](NC(=O)[C@H](O)C(F)(F)F)c1nc(-c2ccc(-c3ccc(-c4c[nH]c([C@@H](NC(=O)[C@H](O)C(F)(F)F)C(C)(C)C)n4)cc3)cc2)c[nH]1 [Compound L-81]
  Fold-Synergistic 1a (Q30E): >100 fold

## CC(C)[C@@H](O)C(=O)N[C@H](c1nc(-c2ccc(-c3ccc(-c4c[nH]c([C@@H](NC(=O)[C@H](O)C(C)C)C(C)(C)C)n4)cc3)cc2)c[nH]1)C(C)(C)C [Compound L-82]
  Fold-Synergistic 1a (Q30E): >100 fold

## CC1(C(=O)N[C@H](c2nc(-c3ccc(-c4ccc(-c5c[nH]c([C@@H](NC(=O)C6(C)OCCCO6)C(C)(C)C)n5)cc4)cc3)c[nH]2)C(C)(C)C)OCCCO1 [Compound L-83]
  Fold-Synergistic 1a (Q30E): >100 fold

## CC1(C(=O)N[C@H](c2nc(-c3ccc(-c4ccc(-c5c[nH]c([C@@H](NC(=O)C6(C)OCC7(CC7)CO6)C(C)(C)C)n5)cc4)cc3)c[nH]2)C(C)(C)C)OCC2(CC2)CO1 (stereo partly drawn) [Compound L-84]
  Fold-Synergistic 1a (Q30E): >100 fold

## C[C@H]1C[C@H](C)OC(C)(C(=O)N[C@H](c2nc(-c3ccc(-c4ccc(-c5c[nH]c([C@@H](NC(=O)C6(C)O[C@@H](C)C[C@H](C)O6)C(C)(C)C)n5)cc4)cc3)c[nH]2)C(C)(C)C)O1 (stereo partly drawn) [Compound L-85]
  Fold-Synergistic 1a (Q30E): >100 fold

## CO[C@@H](C(=O)N[C@H](c1nc(-c2ccc(-c3ccc(-c4c[nH]c([C@@H](NC(=O)[C@H](OC)C(C)C)C(C)(C)C)n4)cc3)cc2)c[nH]1)C(C)(C)C)C(C)C [Compound L-86]
  Fold-Synergistic 1a (Q30E): >100 fold

## CC1(C(=O)N[C@H](c2nc(-c3ccc(-c4ccc(-c5c[nH]c([C@@H](NC(=O)C6(C)OCC(F)(F)CO6)C(C)(C)C)n5)cc4)cc3)c[nH]2)C(C)(C)C)OCC(F)(F)CO1 [Compound L-87]
  Fold-Synergistic 1a (Q30E): >100 fold

## Cc1nnc(C(=O)N[C@H](c2nc(-c3ccc(-c4ccc(-c5c[nH]c([C@@H](NC(=O)c6nnc(C)o6)C(C)(C)C)n5)cc4)cc3)c[nH]2)C(C)(C)C)o1 [Compound L-89]
  Fold-Synergistic 1a (Q30E): >10 fold

## O=C(N[C@H](c1nc(-c2ccc(-c3ccc(-c4c[nH]c([C@@H](NC(=O)C5CCC(F)(F)CC5)C5CC5)n4)cc3)cc2)c[nH]1)C1CC1)C1CCC(F)(F)CC1 [Compound L-90]
  Fold-Synergistic 1a (Q30E): >100 fold

## CC(C)(C(=O)N[C@H](c1nc(-c2ccc(-c3ccc(-c4c[nH]c([C@@H](NC(=O)C(C)(C)C5(O)CCC(F)(F)CC5)C5CC5)n4)cc3)cc2)c[nH]1)C1CC1)C1(O)CCC(F)(F)CC1 [Compound L-91]
  Fold-Synergistic 1a (Q30E): >100 fold

## C[C@@H](OC(=O)N(C)C1(C(=O)N[C@H](c2nc(-c3ccc(-c4ccc(-c5c[nH]c([C@@H](NC(=O)C6(N(C)C(=O)O[C@H](C)C(F)(F)F)CC6)C6(C)CC6)n5)cc4)cc3)c[nH]2)C2(C)CC2)CC1)C(F)(F)F [Compound L-92]
  Fold-Synergistic 1a (Q30E): >100 fold

## CC(C)(C)[C@H](NC(=O)C1(NCC(F)(F)F)CC1)c1nc(-c2ccc(-c3ccc(-c4c[nH]c([C@@H](NC(=O)C5(NCC(F)(F)F)CC5)C(C)(C)C)n4)cc3)cc2)c[nH]1 [Compound L-96]
  Fold-Synergistic 1a (Q30E): >100 fold

## COC(=O)N[C@@H](C(=O)N[C@H](c1ncc(-c2ccc(-c3ccc(-c4cnc([C@@H](NC(=O)[C@H](NC(=O)OC)C(C)C)C(C)C)o4)cc3)cc2)o1)C(C)C)C(C)C [Compound N-1]
  Fold-Synergistic 1a (Q30E): >10 fold

## COC(=O)N[C@H](C(=O)N[C@H](c1ncc(-c2ccc(C#Cc3ccc(-c4cnc([C@@H](NC(=O)[C@@H](NC(=O)OC)C(C)C)C(C)C)[nH]4)cc3)cc2)[nH]1)C(C)C)C(C)C [Compound N-5]
  Fold-Synergistic 1a (Q30E): >10 fold

## CC(C)CC(=O)N[C@H](c1ncc(-c2ccc(C#Cc3ccc(-c4cnc([C@@H](NC(=O)CC(C)C)C(C)C)[nH]4)cc3)cc2)[nH]1)C(C)C [Compound N-6]
  Fold-Synergistic 1a (Q30E): >10 fold

## COC(=O)N[C@H](C(=O)N[C@H](c1nc(-c2ccc3cc(-c4ccc(-c5cnc([C@@H](NC(=O)[C@@H](NC(=O)OC)C(C)C)C(C)(C)C)[nH]5)cc4)ccc3c2)c[nH]1)C(C)(C)C)C(C)C [Compound N-7]
  Fold-Synergistic 1a (Q30E): <10 fold

## COC(=O)N[C@@H](C(=O)N[C@H](c1nc(-c2ccc3cc(-c4ccc(-c5cnc([C@@H](NC(=O)[C@H](NC(=O)OC)C(C)C)C(C)(C)C)[nH]5)cc4)ccc3c2)c[nH]1)C(C)(C)C)C(C)C [Compound N-8]
  Fold-Synergistic 1a (Q30E): >10 fold

## CC(C)CC(=O)N[C@H](c1nc(-c2ccc3cc(-c4ccc(-c5cnc([C@@H](NC(=O)CC(C)C)C(C)(C)C)[nH]5)cc4)ccc3c2)c[nH]1)C(C)(C)C [Compound N-9]
  Fold-Synergistic 1a (Q30E): >10 fold

## CC(C)CC(=O)NC1(c2nc(-c3ccc(-c4ccc(-c5c[nH]c(C6(NC(=O)CC(C)C)CCC6)n5)cc4)cc3)c[nH]2)CCC1 [Compound N-11]
  Fold-Synergistic 1a (Q30E): <10 fold

## CC(C)CC(=O)NC1(c2nc(-c3ccc(-c4ccc(-c5c[nH]c(C6(NC(=O)CC(C)C)CCCC6)n5)cc4)cc3)c[nH]2)CCCC1 [Compound N-12]
  Fold-Synergistic 1a (Q30E): <10 fold

## COC(=O)N[C@@H](C(=O)NC1(c2nc(-c3ccc(-c4ccc(-c5c[nH]c(C6(NC(=O)[C@H](NC(=O)OC)C(C)C)CCCC6)n5)cc4)cc3)c[nH]2)CCCC1)C(C)C [Compound N-13]
  Fold-Synergistic 1a (Q30E): <10 fold

## COC(=O)N[C@@H](C(=O)NC1(c2nc(-c3ccc(-c4ccc(-c5c[nH]c(C6(NC(=O)[C@H](NC(=O)OC)C(C)C)CC=CC6)n5)cc4)cc3)c[nH]2)CC=CC1)C(C)C [Compound N-14]
  Fold-Synergistic 1a (Q30E): <10 fold

## COC(=O)N[C@H](C(=O)NC1(c2nc(-c3ccc(-c4ccc(-c5c[nH]c(C6(NC(=O)[C@@H](NC(=O)OC)C(C)C)CC=CC6)n5)cc4)cc3)c[nH]2)CC=CC1)C(C)C [Compound N-15]
  Fold-Synergistic 1a (Q30E): <10 fold

## CC(C)CC(=O)NC1(c2nc(-c3ccc(-c4ccc(-c5c[nH]c(C6(NC(=O)CC(C)C)CC=CC6)n5)cc4)cc3)c[nH]2)CC=CC1 [Compound N-16]
  Fold-Synergistic 1a (Q30E): <10 fold

## COC(=O)N[C@@H](C(=O)NC1(c2nc(-c3ccc(-c4ccc(-c5c[nH]c(C6(NC(=O)[C@H](NC(=O)OC)C(C)C)Cc7ccccc7C6)n5)cc4)cc3)c[nH]2)Cc2ccccc2C1)C(C)C [Compound N-17]
  Fold-Synergistic 1a (Q30E): <10 fold
